For experiment [1], the target named is Chk-1 kinase (Homo sapiens (Human), UniProt O14757). As to the kind of experiment: Chk-1 Kinase Inhibiting Activity (33P-ATP filter assay, CHKtide substrate). Format: biochemical. Particulars: against Chk-1 kinase; read-out: IC50. As for the experimental part:
Chk-1 Kinase Inhibiting Activity
The compounds of the invention were tested for activity against Chk-1 kinase using the materials and protocols set out below.
Base Reaction buffer: 20 mM Hepes (pH 7.5), 10 mM MgCl2, 1 mM EGTA, 0.02% Brij35, 0.02 mg/ml BSA, 0.1 mM Na3VO4, 2 mM DTT, 1% DMSO
*Required cofactors are added individually to each kinase reaction
(i) Prepare indicated substrate in freshly prepared Base Reaction Buffer
(ii) Deliver any required cofactors to the substrate solution above
(iii) Deliver indicated kinase into the substrate solution and gently mix
(iv) Deliver compounds in DMSO into the kinase reaction mixture
(v) Deliver ^33P-ATP (specific activity 0.01 μCi/μl final) into the reaction mixture to initiate the reaction.
(vi) Incubate kinase reaction for 120 minutes at room temperature
(vii) Reactions are spotted onto P81 ion exchange paper (Whatman #3698-915)
(viii) Wash filters extensively in 0.1% phosphoric acid.
(ix) Dry filters and measure counts in scintillation counter
Recombinant full length construct, N-terminal GST tagged, purified from insect cells.
No special measures were taken to activate this kinase.
Final concentration in assay=0.5 nM
Peptide sequence: [[…]]
Final concentration in assay=20 μM
No additional cofactors are added to the reaction mixture
From the results obtained by following the above protocol, the IC50 values against Chk-1 kinase of each of the compounds of Examples 1-153 were determined and these are shown in Table 3.

For experiment [2], the system named is MIA PaCa-2 cells. In words: Gemcitabine Combination Cell Assay (Cell Titer Glo). The class given is cell-based. To be noted: for IC50: Homo sapiens; for 10xLS: approximate concentration of Chk1 inhibitor that results in a 10-fold reduction in the IC50 of gemcitabine alone; for 2xLS: approximate concentration of Chk1 inhibitor that results in a two-fold reduction in the IC50 of gemcitabine alone. The protocol: Gemcitabine Combination Cell Assay
Exponentially growing MIA PaCa-2 (ATCC CRL-1420) cells are treated with trypsin to remove cells from the plate surface. Approximately 10,000 cells/well are plated in 96 well plates in RPMI containing 10% fetal bovine serum, 1% sodium pyruvate and 1% L-GlutaMax. Cells are allowed to adhere to the plate surface overnight. Serial half-log dilutions of Chk1 inhibitor test compounds and gemcitabine are made with a final highest concentration of 3000 nM and 100 nM, respectively. Chk1 inhibitors and gemcitabine are combined so that each concentration of Chk1 inhibitor is added to each concentration of gemcitabine. Each drug is also tested as a single agent. Drugs are added to adherent cells (in duplicate) and incubated for 72 h. At 72 h the cells are treated with Promega Cell Titer Glo reagent for approximately 15 minutes. Luminescence (relative light units, RLU) is recorded using a BMG Polarstar Omega plate reader. The single agent concentration that results in a 50% reduction in total signal (IC50) is calculated using PRISM software and a four-parameter non-linear regression curve fit. For combination studies the RLUs are plotted using PRISM on an XY plot with the gemcitabine concentration on the X axis and RLU on the Y axis. The RLU for each concentration of Chk1 inhibitor is plotted as a function of gemcitabine concentration. The IC50 for gemcitabine alone and at each concentration of Chk1 is determined using a four-parameter non-linear regression curve fit. The approximate concentration of Chk1 inhibitor that results in a two and ten-fold reduction in the IC50 of gemcitabine alone is calculated as an indication of synergistic potency.
From the results obtained by following the above protocol, the IC50 values against MIAPaca-2 cells of the Chk1 inhibitor alone (Chk1 IC50), the approximate concentration of Chk1 inhibitor that results in a two-fold (2×LS) and a 10-fold (10×LS) reduction in the IC50 of gemcitabine alone of each of the compounds of Examples 1-154 are shown in Table 4.

Where [3] appears, read: Chk1 inhibitor alone, MIA PaCa-2 cells, 72 h, read-out: Chk1 IC50.
[4] abbreviates: MIA PaCa-2, 72 h, read-out: Chk1 IC50 (nM).

Counter-ions that a name gives are not always drawn. Like-named read-outs stand apart in the source and are kept apart here.

Broadly, the IC50 is the concentration at which inhibition is half-maximal.

Sequence of Chk-1 kinase (O14757 whole entry): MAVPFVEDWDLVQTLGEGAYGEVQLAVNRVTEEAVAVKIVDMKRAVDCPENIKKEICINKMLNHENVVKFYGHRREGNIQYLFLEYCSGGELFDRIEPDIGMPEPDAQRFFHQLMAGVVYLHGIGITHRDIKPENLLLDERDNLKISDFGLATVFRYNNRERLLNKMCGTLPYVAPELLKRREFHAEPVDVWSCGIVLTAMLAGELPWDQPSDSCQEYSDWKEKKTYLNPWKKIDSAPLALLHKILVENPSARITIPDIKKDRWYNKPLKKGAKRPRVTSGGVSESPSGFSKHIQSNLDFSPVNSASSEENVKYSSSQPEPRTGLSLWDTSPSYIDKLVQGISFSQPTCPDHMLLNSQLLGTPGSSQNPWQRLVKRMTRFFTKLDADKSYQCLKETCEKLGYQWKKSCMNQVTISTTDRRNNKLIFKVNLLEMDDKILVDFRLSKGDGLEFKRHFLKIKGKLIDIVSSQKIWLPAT

As to `COc1cc(CN[C@H](C)CN2CCOCC2)ccc1-c1cc(Nc2cnc(C#N)cn2)n[nH]1` [Example 18, 5-[[5-[2-methoxy-4-[[[(1R)-1-methyl-2-morpholino-ethyl]amino]methyl]phenyl]-1H-pyrazol-3-yl]amino]pyrazine-2-carbonitrile], in experiment [1], the IC50 was 0.17 nM. In experiment [2] (setting [3]), the IC50 was 1610 nM. For the same compound, in experiment [2] (MIA PaCa-2 cells, 72 h), the “10xLS” value is about 200 nM and the “2xLS” value was about 5 nM.
For `COc1cc(CNC(C)(C)CN2CCOCC2)ccc1-c1cc(Nc2cnc(C#N)cn2)n[nH]1` [Example 19, 5-[[5-[4-[[(1,1-dimethyl-2-morpholino-ethyl)amino]methyl]-2-methoxy-phenyl]-1H-pyrazol-3-yl]amino]pyrazine-2-carbonitrile], in that order: 0.29 nM, 1610 nM, about 200 nM and 3 nM.
For `COc1cc(C2CCNCC2)ccc1-c1cc(Nc2cnc(C#N)cn2)n[nH]1` [Example 20, 5-[[5-[2-methoxy-4-(4-piperidyl)phenyl]-1H-pyrazol-3-yl]amino]pyrazine-2-carbonitrile], in that order: 0.29 nM, 1110 nM, 100 nM and about 5 nM.
For `CN1CCC(c2ccc(-c3cc(Nc4cnc(C#N)cn4)n[nH]3)c(F)c2)CC1` [Example 21, 5-[[5-[2-fluoro-4-(1-methyl-4-piperidyl)phenyl]-1H-pyrazol-3-yl]amino]pyrazine-2-carbonitrile], in that order: 2.4 nM, 3180 nM, 1000 nM and 100 nM.
Take `COc1cc(N2CCN(C)CC2)ccc1-c1cc(Nc2cnc(C#N)cn2)n[nH]1` [Example 22, 5-[[5-[2-methoxy-4-(4-methylpiperazin-1-yl)phenyl]-1H-pyrazol-3-yl]amino]pyrazine-2-carbonitrile hydrochloride]: the IC50 in experiment [1] turned out to be 0.026 nM. Besides, in experiment [2] (setting [4]), the IC50 worked out at 88 nM. In addition, in experiment [2] (MIA PaCa-2 cells, 72 h), the “10xLS” value was under 30 nM and the “2xLS” value was under 3 nM.
With `COc1cc(N2CCCN(C)CC2)ccc1-c1cc(Nc2cnc(C#N)cn2)n[nH]1` [Example 23, 5-[[5-[2-methoxy-4-(4-methyl-1,4-diazepan-1-yl)phenyl]-1H-pyrazol-3-yl]amino]pyrazine-2-carbonitrile], the 50% inhibitory concentration (IC50) in experiment [1] came to 0.12 nM. In experiment [2] (setting [3]), the IC50 stood at 266 nM. Also, in experiment [2] (MIA PaCa-2 cells, 72 h), the “10xLS” value is under 100 nM and the “2xLS” value was under 3 nM.
As to `COc1cc(C2CCN(C)CC2)ccc1-c1cc(Nc2ccc(C#N)nc2)n[nH]1.Cl` [Example 24, 5-[[5-[2-methoxy-4-(1-methyl-4-piperidyl)phenyl]-1H-pyrazol-3-yl]amino]pyridine-2-carbonitrile hydrochloride], the IC50 in experiment [1] turned out to be 0.24 nM. In experiment [2] (setting [3]), the IC50 worked out at 934 nM. Moreover, in experiment [2] (MIA PaCa-2 cells, 72 h), the “10xLS” value worked out at 300 nM and the “2xLS” value was found to be 10 nM.
With `COc1cc(C2CCN(C)CC2)ccc1-c1cc(Nc2ccc(C#N)cn2)n[nH]1` [Example 25, 6-[[5-[2-methoxy-4-(1-methyl-4-piperidyl)phenyl]-1H-pyrazol-3-yl]amino]pyridine-3-carbonitrile], the 50% inhibitory concentration (IC50) in experiment [1] is 14 nM; in experiment [2] (setting [3]), over 3000 nM. For the same compound, the “10xLS” value in experiment [2] (MIA PaCa-2 cells, 72 h) is given as over 3000 nM. Further, the “2xLS” value in experiment [2] (MIA PaCa-2 cells, 72 h) was 300 nM.
On the same counts, the results for `COc1cc(C2CCN(C)CC2)ccc1-c1cc(Nc2cnc(C)cn2)n[nH]1` [Example 26, N-[5-[2-methoxy-4-(1-methyl-4-piperidyl)phenyl]-1H-pyrazol-3-yl]-5-methyl-pyrazin-2-amine] are 10 nM, 5580 nM, over 3000 nM and 1000 nM.
On the same counts, the results for `CN1CCC(c2ccc(-c3cc(Nc4cnc(C#N)cn4)n[nH]3)cc2)CC1` [Example 27, 5-[[5-[4-(1-methyl-4-piperidyl)phenyl]-1H-pyrazol-3-yl]amino]pyrazine-2-carbonitrile] are 3.6 nM, 5750 nM, 3000 nM and 300 nM.
With `COc1cc(OC2CCN(C)CC2)ccc1-c1cc(Nc2cnc(C#N)cn2)n[nH]1` [Example 28, 5-[[5-[2-methoxy-4-[(1-methyl-4-piperidyl)oxy]phenyl]-1H-pyrazol-3-yl]amino]pyrazine-2-carbonitrile hydrochloride], in experiment [1], the half-maximal inhibitory concentration (IC50) was 0.13 nM. The IC50 in experiment [2] (setting [4]) turned out to be 279 nM. In addition, in experiment [2] (MIA PaCa-2 cells, 72 h), the “10xLS” value is under 100 nM and the “2xLS” value is under 3 nM.
`COc1cc(OCC2CCN(C)CC2)ccc1-c1cc(Nc2cnc(C#N)cn2)n[nH]1` [Example 29, 5-[[5-[2-methoxy-4-[(1-methyl-4-piperidyl)methoxy]phenyl]-1H-pyrazol-3-yl]amino]pyrazine-2-carbonitrile]: in experiment [1], the IC50 amounted to 0.068 nM. Besides, the IC50 in experiment [2] (setting [3]) turned out to be 176 nM. Moreover, in experiment [2] (MIA PaCa-2 cells, 72 h), the “10xLS” value is reported as 100 nM and the “2xLS” value was found to be 3 nM.
With `COc1cc(C2CCN(C)CC2)ccc1-c1cc(Nc2ccc(C#N)c(F)c2)n[nH]1` [Example 30, 2-fluoro-4-[[5-[2-methoxy-4-(1-methyl-4-piperidyl)phenyl]-1H-pyrazol-3-yl]amino]benzonitrile], the concentration for half-maximal inhibition (IC50) in experiment [1] was 17 nM; in experiment [2] (setting [3]), over 3000 nM. Also, in experiment [2] (MIA PaCa-2 cells, 72 h), the “10xLS” value was over 3000 nM. Besides, in experiment [2] (MIA PaCa-2 cells, 72 h), the “2xLS” value was 1000 nM.
For `COc1cc(CNc2ccccn2)ccc1-c1cc(Nc2cnc(C#N)cn2)n[nH]1` [Example 31, 5-[[5-[2-methoxy-4-[(2-pyridylamino)methyl]phenyl]-1H-pyrazol-3-yl]amino]pyrazine-2-carbonitrile], in that order: 0.37 nM, 838 nM, 100 nM and 3 nM.
On the same counts, the results for `COc1cc(C2CCN(C)CC2)c(F)cc1-c1cc(Nc2cnc(C#N)cn2)n[nH]1` [Example 32, 5-[[5-[5-fluoro-2-methoxy-4-(1-methyl-4-piperidyl)phenyl]-1H-pyrazol-3-yl]amino]pyrazine-2-carbonitrile] are 0.26 nM, 784 nM, 300 nM and 30 nM.
For `COc1cc(O[C@H]2CCNC2)ccc1-c1cc(Nc2cnc(C#N)cn2)n[nH]1` [Example 33, 5-[[5-[2-methoxy-4-[(3S)-pyrrolidin-3-yl]oxy-phenyl]-1H-pyrazol-3-yl]amino]pyrazine-2-carbonitrile], in that order: 0.074 nM, 62 nM, under 30 nM and under 3 nM.
As for `COc1cc(OCC2CCCN2)ccc1-c1cc(Nc2cnc(C#N)cn2)n[nH]1` (stereo not drawn) [Example 34, 5-[[5-[2-methoxy-4-(pyrrolidin-2-ylmethoxy)phenyl]-1H-pyrazol-3-yl]amino]pyrazine-2-carbonitrile], the IC50 in experiment [1] was 0.14 nM. In experiment [2] (setting [3]), the IC50 amounted to 183 nM. Also, in experiment [2] (MIA PaCa-2 cells, 72 h), the “10xLS” value was 100 nM and the “2xLS” value came out at 3 nM.
On the same counts, the results for `COc1cc(OCC2CCCN2C)ccc1-c1cc(Nc2cnc(C#N)cn2)n[nH]1` (stereo not drawn) [Example 35, 5-[[5-[2-methoxy-4-[(1-methylpyrrolidin-2-yl)methoxy]phenyl]-1H-pyrazol-3-yl]amino]pyrazine-2-carbonitrile] are 0.14 nM, 217 nM, 100 nM and 3 nM.

The values are drawn from patent publication US10010547B2 (CASCADIAN THERAPEUTICS, INC., priority 2014, dated 2018).
